Measured values published in patent publication US20250177346A1 (priority 2022, published 2025).

Key:
C57BL/6 mouse model [1] = conditions: in vivo
C57BL/6 mouse model [2] = conditions: in vivo; remark: listed apart in the source
[3] = system: outer root sheath cells (ORSs) derived from human hair follicles; format: cell-based
human hair follicles [4] = format: cell-based
[5] = system: human hair dermal papilla cells; format: cell-based
[6] = system: hair dermal papilla cells derived from human hair follicles; format: cell-based
[7] = system: outer root sheath cells derived from human hair follicles; format: cell-based
human hair follicles [8] = format: cell-based; remark: listed apart in the source
[9] = system: hair dermal papilla cells (HDPCs) derived from human hair follicles; format: cell-based
[10] = system: outer root sheath cells derived from human hair follicles; format: cell-based; remark: listed apart in the source

Structure (SMILES): Nc1cc(N2CCCCC2)nc(N)[n+]1[O-] [minoxidil, 6-piperidin-1-ylpyrimidine-2,4-diamine 3-oxide]
- hair growth / area of hair growth in the anagen phase (C57BL/6 mouse model [1]): hair growth was shown

Structure (SMILES): O=C(NCc1ccc2c(c1)OCO2)c1c(Cl)cccc1Cl [Alda-1, N-(1,3-benzodioxol-5-ylmethyl)-2,6-dichlorobenzamide]
- anagen induction score (C57BL/6 mouse model [2]): increased compared to the control
- formation of hair follicles (hematoxylin and eosin staining) (C57BL/6 mouse model [2]): promoted
- percentage of areas where hair in the anagen phase grew (C57BL/6 mouse model [2]): significantly increased
- skin thickness (C57BL/6 mouse model [2]): increased compared to the control
- cell viability of outer root sheath cells [3]: significantly increased
- proliferation of outer root sheath cells compared with minoxidil [3]: equivalent to or greater than those of minoxidil
- Ki-67 positive cell effect compared with minoxidil (human hair follicles [4]): even better than that of minoxidil
- level of Ki-67 positive cells in hair follicles (human hair follicles [4]): increased
- protein level of basic fibroblast growth factor (bFGF) [5]: increased
- protein level of insulin-like growth factor 1 (IGF-1) [5]: increased
- protein level of keratinocyte growth factor (FGF-7) [5]: increased
- protein level of platelet-derived growth factor (PDF) [5]: increased
- hair growth / area of hair growth in the anagen phase (C57BL/6 mouse model [1]): hair growth was shown
- fluorescence level indicating DCFDA (oxidative stress) [6]: significantly reduced
- ATP production of mitochondria, increase [7]: ~10 fold
- basal respiration rate [7]: remarkably increased
- maximal respiration rate [7]: remarkably increased
- oxygen consumption efficiency of outer root sheath cells [7]: increased
- elongation of hair in human hair follicles (human hair follicles [8]): promoted the elongation of hair
- growth of hair in hair follicles compared with minoxidil (human hair follicles [8]): higher levels compared to minoxidil
- cell viability of hair dermal papilla cells [9]: significantly increased
- proliferation of hair dermal papilla cells compared with minoxidil [9]: equivalent to or greater than those of minoxidil
- oxidative stress in outer root sheath cells (DCFDA level, flow cytometry) [10]: significantly reduced
